Measurements taken from patent publication US20240228536A1, “PEPTIDES FOR USE IN SKIN AND HAIR PIGMENTATION” (Follicum AB, priority 2020, published 2024).

Columns and labels:
[1] = system: Melanoderms Mel-300-A (donor); experiment: Skin equivalent culture, peptides in formulation, photographic assessment of pigmentation; type: cell-based, human; settings: 7 days; for pigmentation of SEs (visual assessment), response by concentration: 0.4%, 1% and 2% in formulation B, relative to vehicle controls; for pigmentation of SEs (visual assessment): in formulation B, 25 μl topical, vs formulation B only and peptide dissolved in water (10 mg/ml)
Description: Pigmented skin equivalents (SEs), Melanoderms Mel-300-A (donor) were obtained from Mattek Ltd together with the associated media […]-113 and hanging well plates. The skin equivalent surface area was 63.6 mm^2. Other equipment used included SMZ1000 Stereo 10 Microscope (Nikon); UC30 Microscope Camera (Olympus); Sterile Phosphate-Buffered Saline (PBS, Thermofisher, UK); 12-well Tissue Culture Plates (Sarstedt). All incubations were carried out in a humidified incubator maintained at 37° C. with 5% CO2. Pure peptide (>99%) was obtained from Biomatik, USA as acetate salt. The Melanoderms were prepared by carefully removing the agarose with sterile forceps and placing in 5 ml pre-warmed culture medium in hanging plates and incubated overnight. […] The tissue surface was photographed using an Olympus camera system attached to an inverted microscope to record initial pigmentation levels. SEs were transferred back to hanging well plates containing 5 ml fresh media. Three SEs were removed to provide baseline day 0 controls for analysis using WS staining and qPCR analysis. SEs (n=3 per treatment) were topically treated for 7 days with 25 μl of the various peptide concentrations in formulations as prepared in Example 12 in parallel with relevant controls. […] Each formulation was applied to the surface of SEs using a positive displacement pipette and spread evenly using a sterile microbiological loop. SEs were maintained at 37° C., 5% CO2 in a humidified incubator with media refreshed every other day until the end of treatment. On day 7 SEs were removed from culture and formulation carefully removed using a sterile microbiological loop and the surface rinsed in PBS then blotted dry with a sterile cotton bud. […] The pigmentation of the Melanoderms was macroscopically assessed by capturing high-resolution images using the Olympus microscope camera.

Melanoderm SEs = experiment: Warthin-Starry silver staining of melanin granules in Melanoderms; type: cell-based, human; settings: in formulation B at all three concentrations (0.4%, 1%, 2%), 7 days, compared to formulation only
Description: Tissue from each Melanoderm of Example 13 was carefully cut from inserts using a sterile scalpel blade (no. 11) and cut in half. One half was submerged overnight at −20° C. in RNAlater solution (Qiagen, UK) for RNA stabilization. The following day excess RNAlater solution was removed, and samples stored at −80° C. until RNA extracted for qPCR. The second half of each tissue was fixed overnight in 10% neutral buffered formalin then processed for wax embedding, sectioning, and Warthin-Starry staining.
All reagents used were of research grade quality and obtained from Sigma, UK. For silver staining high purity photo-grade (>99%) Silver nitrate was used. All reagents were prepared in acidulated (citrulated) distilled water (approx. 1 ml/L of 1% Citric acid was added to distilled water to change the pH to 3.4). Other equipment used were two water baths pre-set at 43° C. and 54° C., plastic staining tubs and slide racks for incubating slides, magnetic stirrers, and calibrated pH meter.
Melanin in tissue sections was stained using the modified Warthin-Starry staining method (Warthin, A. et al., Am. J. Syph. (1920) 4:97-103; Warkel, R. et al., Am. J. Clin. Path. (1980) 73 June (6): 812-5.). Briefly, 7 μm tissue sections were cut from wax blocks and floated onto charged slides (Leica Xtra clipped corner glass slides). […]

PMEL = experiment: qPCR expression analysis of melanogenesis markers in Melanoderm SEs; type: cell-based, human; settings: 0.4% in formulation B, day 7, against formulation B treatment only (p=0.015, t-test)
Description: (§1) RNA stabilized Melanoderm tissue from Example 13 was thawed on ice RNA extracted using the RNeasy extraction kit (Qiagen, UK) according to manufacturer's instructions.
(§2) To ensure efficient lysis, tissue was ground in lysis buffer in a RNase-free 1.5 ml centrifuge tube using a sterile microbiological colony picker then passed through a Qiashredder column (Qiagen, UK) before lysate was purified. To prevent carry over of gDNA to qPCR, on-column digestion using 80 μl of DNase enzyme was added (DNase on column digestion kit, Sigma, UK). RNA was eluted in a 50 μl volume of sterile elution buffer and stored at −80° C. until use. For cDNA reverse transcription 8 μl of RNA was added as template in a 20 μl final volume in a 96-well plate using the iScript Advanced cDNA Synthesis Kit for RT-qPCR (Bio-Rad, UK) according to manufacturer's instructions. Low profile 96-well PCR plates and seals for qPCR reactions were obtained from Thermofisher. For qPCR 1 μl of cDNA from each test sample and relevant controls were amplified in a 96-well plate using SsoAdvanced Universal SYBR® Green Supermix and target pigmentation specific gene primers (pigment cell-specific pre-melanosomal protein (PMEL), Tyrosinase-related protein-1 (TYRP-1) and Tyrosinase (TYR)) in a 20 μl final reaction volume. Prevalidated primers, templates and gDNA controls were sourced from Bio-Rad, UK. Prevalidated template cDNA was included as a positive control for each gene tested. Ribosomal protein-20 (RPS20) was used as a housekeeping gene control. Samples were amplified using an Applied Biosystems StepOne Plus qPCR machine and associated software. Differences in fold gene expression between treatments and untreated controls were calculated from RPS20 reference gene normalised Ct values using the ΔΔCt method (2-(ΔΔCt)). Final expression values were log 10 transformed prior to statistical analysis (unpaired t-test) using Prism software.

TYRP-1 = experiment: as above; type: cell-based, human; settings: 0.4% in formulation B, day 7, against formulation B only (p=0.005, t-test)
Description: as §1, §2

Tyrosinase (TYR) = experiment: as above; type: cell-based, human; settings: 0.4% in formulation B, day 7, compared to formulation B only (p=0.027, t-test)
Description: as §1, §2

[2] = Stability study of compositions comprising peptides 1 and 4 (HPLC purity); type: physicochemical; settings: water-free formulations A, B and C, 20° C., 12 weeks
Description: Samples of the separate formulations were stored at 20° C. […] Analysis of peptide purity in ointment and PBS solutions was performed using standard HPLC-UV-DA methods when the samples were freshly prepared (time 0) and after 1, 2, 6, 8 and 12 weeks.

Row | relative expression of Tyrosinase (TYR) (qPCR) (Tyrosinase (TYR)) | Substance | pigmentation of SEs (visual assessment), response by concentration [1] | pigmentation of SEs (visual assessment) [1] | melanin in epidermal layers (Warthin-Starry) (Melanoderm SEs) | relative expression of PMEL (qPCR) (PMEL) | relative expression of TYRP-1 (qPCR) (TYRP-1) | stability (peptide purity by HPLC) [2]
1 | significant increase in expression | Asn-Ala-Ala-Met (NAAM; (1)..(4) Peptide 4) | approximately equal increase in pigmentation relative to vehicle controls | more pigmented than the vehicle control | greater increase in melanin in all layers of the epidermis | greatest increase in expression which was significant | moderately significant increase in expression | 
2 |  | Asn-Ala-His-Met (NAHM; (1)..(4) Peptide 1) | highest response at the higher 1% and 2% concentrations | more pigmented than the vehicle control | modest increase in melanin in the basal and stratum spinosum layers |  |  | stable
